Laboratory results taken from publication PMC2760403 (The Journal of organic chemistry, 2009).

Experiments:
[1] = target: M. tuberculosis Lumazine Synthase (Mycobacterium tuberculosis, UniProt P9WHE9); assay type: biochemical; settings: recombinant M. tuberculosis LS; for kcat (rate constant ES → E + P): fit of the compound's data set; for kcat (rate constant ES → E + P) / Kis (inhibitor dissociation constant, ES + I ⇌ ESI): pH 7.0; for Kis (inhibitor dissociation constant, ES + I ⇌ ESI): substrate 1 varied, 2 constant
Sequence of M. tuberculosis Lumazine Synthase (P9WHE9 whole entry): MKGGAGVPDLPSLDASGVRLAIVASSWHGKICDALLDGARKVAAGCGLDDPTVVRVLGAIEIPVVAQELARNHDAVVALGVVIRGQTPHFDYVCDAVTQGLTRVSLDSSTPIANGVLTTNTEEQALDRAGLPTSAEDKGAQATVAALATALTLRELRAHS

[2] = target: T1, S. pombe Lumazine Synthase (Schizosaccharomyces pombe, UniProt Q9UUB1); test: Lumazine synthase kinetic inhibition assay; assay type: biochemical; settings: recombinant S. pombe LS; for kcat (rate constant ES → E + P): fit of the compound's data set; for kcat (rate constant ES → E + P) / Kis (inhibitor dissociation constant, ES + I ⇌ ESI): pH 7.0; for Kis (inhibitor dissociation constant, ES + I ⇌ ESI): substrate 1 varied, 2 constant
T1 sequence (Q9UUB1 1-159): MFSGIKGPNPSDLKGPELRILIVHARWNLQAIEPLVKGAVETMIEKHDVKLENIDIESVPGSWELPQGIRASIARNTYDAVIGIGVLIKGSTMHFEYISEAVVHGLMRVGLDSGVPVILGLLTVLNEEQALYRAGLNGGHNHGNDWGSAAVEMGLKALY

Row | SMILES | Mode of inhibition [1] | kcat (rate constant ES → E + P) [1] | Kis (inhibitor dissociation constant, ES + I ⇌ ESI) [1] | Mode of inhibition [2] | kcat (rate constant ES → E + P) [2] | Kis (inhibitor dissociation constant, ES + I ⇌ ESI) [2]
1 | O=c1[nH]c(/C=C/c2ccccc2[N+](=O)[O-])c([N+](=O)[O-])c(=O)[nH]1 [Compound 14, (E)-6-(2-Nitrostyryl)-5-nitropyrimidine-2,4(1H,3H)-dione] | Partial | 0.00517 ± 0.00017 s⁻¹ | 49 ± 12 µM |  |  | 
2 | COc1ccccc1/C=C/c1[nH]c(=O)[nH]c(=O)c1[N+](=O)[O-] [Compound 19, (E)-6-(2-Methoxystyryl)-5-nitropyrimidine-2,4(1H,3H)-dione] | Partial | 0.00537 ± 6.7e-05 s⁻¹ | 44 ± 10 µM | Mixed | 0.0285 ± 0.00017 s⁻¹ | 733 ± 227 µM
3 | COc1ccc(/C=C/c2[nH]c(=O)[nH]c(=O)c2[N+](=O)[O-])cc1O [Compound 20, (E)-6-(3-Hydroxy-4-methoxystyryl)-5-nitropyrimidine-2,4(1H,3H)-dione] | Mixed | 0.00467 ± 0.00017 s⁻¹ | 74 ± 12 µM | Uncompetitive | 0.0235 ± 0.00033 s⁻¹ | 38 ± 2 µM
4 | COc1cccc(/C=C/c2[nH]c(=O)[nH]c(=O)c2[N+](=O)[O-])c1OC [Compound 21, (E)-6-(2,3-Dimethoxystyryl)-5-nitropyrimidine-2,4(1H,3H)-dione] | Mixed | 0.0055 ± 0.00017 s⁻¹ | 22 ± 6 µM | Competitive | 0.0368 ± 0.00033 s⁻¹ | 
5 | COc1ccc(/C=C/c2[nH]c(=O)[nH]c(=O)c2[N+](=O)[O-])cc1OC [Compound 22, (E)-6-(3,4-Dimethoxystyryl)-5-nitropyrimidine-2,4(1H,3H)-dione] | Mixed | 0.0055 ± 0.00017 s⁻¹ | 32 ± 3 µM |  |  | 
6 | COc1ccc(/C=C/c2[nH]c(=O)[nH]c(=O)c2[N+](=O)[O-])c(OC)c1OC [Compound 23, (E)-6-(2,3,4-Trimethoxystyryl)-5-nitropyrimidine-2,4(1H,3H)-dione] | Mixed | 0.00567 ± 0.00017 s⁻¹ | 97 ± 24 µM |  |  | 
7 | COc1cc(/C=C/c2[nH]c(=O)[nH]c(=O)c2[N+](=O)[O-])cc(OC)c1OC [Compound 24, (E)-6-(3,4,5-Trimethoxystyryl)-5-nitropyrimidine-2,4(1H,3H)-dione] | Mixed | 0.0045 ± 0.00017 s⁻¹ | 37 ± 5 µM | Uncompetitive | 0.0233 ± 0.0005 s⁻¹ | 47 ± 4 µM
8 | O=c1[nH]c(/C=C/c2cccc([N+](=O)[O-])c2)c([N+](=O)[O-])c(=O)[nH]1 [Compound 25, (E)-5-Nitro-6-(3-nitrostyryl)pyrimidine-2,4(1H,3H)-dione] | Mixed | 0.0055 ± 0.00017 s⁻¹ | 173 ± 50 µM | Mixed | 0.019 ± 0.00033 s⁻¹ | 496 ± 219 µM
9 | O=c1[nH]c(/C=C/c2ccc([N+](=O)[O-])cc2)c([N+](=O)[O-])c(=O)[nH]1 [Compound 26, (E)-5-Nitro-6-(4-nitrostyryl)pyrimidine-2,4(1H,3H)-dione] | Mixed | 0.0075 ± 0.00017 s⁻¹ | 37 ± 17 µM | Partial | 0.0217 ± 0.00033 s⁻¹ | 15 ± 5 µM
10 | O=C(O)c1ccc(/C=C/c2[nH]c(=O)[nH]c(=O)c2[N+](=O)[O-])cc1 [Compound 27, (E)-4-(2-(5-Nitro-2,6-dioxo-1,2,3,6-tetrahydropyrimidine-4-yl)vinyl)benzoic Acid] | Partial | 0.00588 ± 6.7e-05 s⁻¹ | 78 ± 38 µM | Mixed | 0.0232 ± 0.0005 s⁻¹ | 187 ± 43 µM
11 | O=c1[nH]c(/C=C/c2ccccc2F)c([N+](=O)[O-])c(=O)[nH]1 [Compound 28, (E)-6-(2-Fluorostyryl)-5-nitropyrimidine-2,4(1H,3H)-dione] | Mixed | 0.0045 ± 0.00017 s⁻¹ | 13 ± 3 µM |  |  | 
12 | O=c1[nH]c(/C=C/c2ccc(Br)cc2)c([N+](=O)[O-])c(=O)[nH]1 [Compound 30, (E)-5-Nitro-6-(4-bromostyryl)pyrimidine-2,4(1H,3H)-dione] | Mixed | 0.00567 ± 0.00017 s⁻¹ | 234 ± 59 µM | Uncompetitive | 0.0205 ± 0.00017 s⁻¹ | 604 ± 54 µM
13 | O=c1[nH]c(/C=C/c2ccc(Cl)cc2)c([N+](=O)[O-])c(=O)[nH]1 [Compound 31, (E)-6-(4-Chlorostyryl)-5-nitropyrimidine-2,4(1H,3H)-dione] | Mixed | 0.00617 ± 0.00017 s⁻¹ | 188 ± 38 µM |  |  | 
14 | COc1ccc([N+](=O)[O-])cc1/C=C/c1[nH]c(=O)[nH]c(=O)c1[N+](=O)[O-] [Compound 34, (E)-6-(2-Methoxy-5-nitrostyryl)-5-nitropyrimidine-2,4(1H,3H)-dione] | Mixed | 0.00633 ± 0.00017 s⁻¹ | 225 ± 59 µM | Mixed | 0.0182 ± 0.00033 s⁻¹ | 682 ± 409 µM
15 | O=c1[nH]c(/C=C/c2ccc(O)c([N+](=O)[O-])c2)c([N+](=O)[O-])c(=O)[nH]1 [Compound 36, (E)-6-(4-Hydroxy-3-nitrostyryl)-5-nitropyrimidine-2,4(1H,3H)-dione] | Mixed | 0.00617 ± 0.00017 s⁻¹ | 461 ± 150 µM | Uncompetitive | 0.022 ± 0.00017 s⁻¹ | 276 ± 16 µM
16 | O=C(O)c1ccc(/C=C/c2[nH]c(=O)[nH]c(=O)c2[N+](=O)[O-])c(O)c1 [Compound 37, (E)-3-Hydroxy-4-(2-(5-nitro-2,6-dioxo-1,2,3,6-tetrahydropyrimidine-4-yl)vinyl)benzoic Acid] | Mixed | 0.00667 ± 0.00017 s⁻¹ | 468 ± 113 µM | Mixed | 0.0273 ± 0.00033 s⁻¹ | 921 ± 640 µM
17 | O=c1[nH]c(/C=C/c2cccnc2)c([N+](=O)[O-])c(=O)[nH]1 [Compound 42, (E)-5-Nitro-6-(3-(pyridine-3-yl)vinyl)pyrimidine-2,4(1H,3H)-dione] | Partial | 0.007 ± 0.00017 s⁻¹ | 24 ± 10 µM |  |  | 
18 | O=c1[nH]c(NCc2ccccc2)c([N+](=O)[O-])c(=O)[nH]1 [Compound 45, 6-(Benzylamino)-5-nitropyrimidine-2,4(1H,3H)-dione] | Uncompetitive | 0.00933 ± 0.00017 s⁻¹ | 823 ± 128 µM |  |  | 
19 | O=c1[nH]c(NCc2ccccc2O)c([N+](=O)[O-])c(=O)[nH]1 [Compound 46, 6-(2-Hydroxybenzylamino)-5-nitropyrimidine-2,4(1H,3H)-dione] | Uncompetitive | 0.0103 ± 0.00033 s⁻¹ | 904 ± 193 µM |  |  | 
20 | O=C1OC(Cc2[nH]c(=O)[nH]c(=O)c2[N+](=O)[O-])c2ccccc21 (centres unmarked) [Compound 49, 5-Nitro-6-[(3-oxo-1,3-dihydroisobenzofuran-1-yl)methyl]pyrimidine-2,4-(1H,3H)-dione] |  |  |  | Uncompetitive | 0.0187 ± 0.00033 s⁻¹ | 154 ± 13 µM
